Results published in PMC11040352, “CD38‐Specific Gallium‐68 Labeled Peptide Radiotracer Enables Pharmacodynamic Monitoring in Multiple Myeloma with PET” (Advanced Science, 2024).
Values joined by “and” are separate entries in the source; they are usually repeats but may differ in a detail not shown here. Identical values can stand only once. Like-named read-outs stand apart in the source and are kept apart here.

What was measured:
[1] = Ex vivo biodistribution in mice with RPMI tumor xenografts; conditions: both sexes, NSG, mouse, 60 min p.i., RPMI xenograft mice; for tissue uptake at 1 h: 50 µCi; for tissue to tissue ratio at 1 h: 50 uCi, total radioactivity
Procedure: (§1) Animal studies were performed under Johns Hopkins University Animal Care and Use Committee (ACUC‐approved protocol (Principal investigator: Sridhar Nimmagadda, Ph.D. and Protocol number M021M175). Male and female NSG mice (5‐6 weeks old) were used to establish xenografts by administering 3 million cells (50% Corning Matrigel) subcutaneously to form various tumor models within 3–4 weeks. Imaging or biodistribution studies (n = 3–5) were conducted on mice with tumor volumes of 100–200 mm^3. Disseminated tumor models were developed by injecting 4–5 million cells in saline intravenously for MOLP8 and MM1S‐Luc models (n = 4–5). Luciferase expressing MM1S cell line (MM1S‐Luc) was used to monitor cancer cell dissemination in the body. Tumor establishment was confirmed by injecting D‐Luciferin intraperitoneally (150 mg kg^−1) and imaged mice after 10 min in IVIS bioluminescence imaging system. Bone marrow tumors were ready for imaging after 25–30 d of implantation.
(§2) Mice with 100–200 mm^3 tumor volume were used for ex vivo biodistribution studies. For radiotracer pharmacokinetics studies, mice with MOLP8 tumor xenografts received ≈80 µCi (2.96 MBq) [^68Ga]Ga‐AJ206 and were sacrificed at pre‐determined time points (5, 30, 60 and 120 min). Similarly, for dosimetry study, mice with MM1S tumor xenografts received ≈80 µCi (2.96 MBq) of [^68Ga]Ga‐AJ206 and were sacrificed at pre‐determined time points (5, 30, 60, 90 and 120 min). All other mice were injected with ≈50µCi (1.85 MBq) [^68Ga]Ga‐AJ206 and were sacrificed at 60 min. The selected tissues were collected, weighed, counted, and their %ID g^−1 values calculated for biodistribution analysis. The tissues included blood, muscle, tumor, thymus, heart, lung, liver, pancreas, stomach, small intestine, large intestine, spleen, adrenals, kidney, bladder, femur, and brain.

MOLP8 tumor xenografts = experiment: Ex vivo biodistribution in mice with MOLP8 tumor xenografts; parameters: species or system NSG mice; conditions: MOLP8 xenograft mice
Procedure: as §1, §2

[2] = as above; parameters: species or system NSG mice; conditions: both sexes, NSG, mouse, 80 uCi, total radioactivity, MOLP8 xenograft mice; for tissue to tissue ratio at 5 min: 5 min p.i.; for tissue to tissue ratio at 0.5 h: 30 min p.i.; for tissue to tissue ratio at 1 h: 60 min p.i.; for tissue to tissue ratio at 2 h: 120 min p.i.
Procedure: as §1, §2

[3] = Octanol/PBS partition coefficient (LogD, pH 7.4); format: physicochemical
Procedure: Partition coefficients, logD (pH7.4) value, were determined according to a literature procedure.^[ [46] ^] Briefly, a 10 µL solution of [^68Ga]Ga‐AJ206 (around 10 µCi) was added to a solution of 1‐octanol (200 µL) mixed with phosphate buffered saline (PBS) (190 µL) in a 1.5 mL centrifuge tube. After the mixture was vigorously shaken and vortexed, it was centrifuged at 3000 rpm for 5 min. Aliquots (10 µL) were removed from the two phases, and the radioactivity was measured on an automated gamma counter (1282 Compugamma CS, Pharmacia/LKB Nuclear, Inc., Gaithersburg, MD). The logD was calculated as the average log ratio value of the radioactivity in the 1‐octanol fraction and the PBS fraction from the four samples.

[4] = 60 min p.i., listed as [68Ga]Ga-AJ206
[5] = tumor/blood, read-out: Tumor/blood ratio
[6] = tumor/muscle, read-out: Tumor/muscle ratio

CC[C@H](C)[C@@H]1NC(=O)[C@@H]2CCCN2C(=O)[C@H](Cc2ccccc2)NC(=O)[C@H](CC(=O)O)NC(=O)[C@H](C)NC(=O)[C@@H]2CSCc3cc(cc(c3)CSC[C@H](NC(=O)[C@H](C)NC(=O)CCOCCOCCOCCNC(=O)CN3CCN(CC(=O)O)CCN(CC(=O)O)CC3)C(=O)N[C@@H](C(C)C)C(=O)N3CCC[C@H]3C(=O)N2)CSC[C@@H](C(N)=O)NC(=O)[C@H](Cc2ccc(O)cc2)NC(=O)[C@H](Cc2c[nH]c3ccccc23)NC1=O [[^68Ga]Ga‐AJ206, metal not drawn]
tissue uptake at 1 h ([1]; blood, read-out: uptake in blood): 0.98 ± 0.48 %ID/g | tissue uptake at 1 h ([1]; heart, read-out: uptake in heart): 0.63 ± 0.21 %ID/g | tissue uptake at 1 h ([1]; kidney, read-out: uptake in kidney): 17.8 ± 3.48 %ID/g | tissue uptake at 1 h ([1]; liver, read-out: uptake in liver): 1.27 ± 0.3 %ID/g | tissue uptake at 1 h ([1]; lung, read-out: uptake in lung): 1 ± 0.26 %ID/g | tissue uptake at 1 h ([1]; muscle, read-out: uptake in muscle): 0.49 ± 0.07 %ID/g | tissue uptake at 1 h ([1]; pancreas, read-out: uptake in pancreas): 0.48 ± 0.15 %ID/g | tissue uptake at 1 h ([1]; small intestine, read-out: uptake in small intestine): 0.59 ± 0.25 %ID/g | tissue uptake at 1 h ([1]; spleen, read-out: uptake in spleen): 1.09 ± 0.15 %ID/g | tissue uptake at 1 h ([1]; stomach, read-out: uptake in stomach): 0.45 ± 0.07 %ID/g | tissue uptake at 1 h ([1]; tumor, read-out: uptake in tumor): 1.78 ± 0.36 %ID/g | tissue to tissue ratio at 1 h ([1]; tumor/blood, read-out: Tumor/Blood ratio): 2.69 ± 0.65 | tissue to tissue ratio at 1 h ([1]; tumor/muscle, read-out: Tumor/Muscle ratio): 3.72 ± 0.73 | uptake in blood (MOLP8 tumor xenografts; 5 min p.i.): 8.25 ± 0.50 %ID g^−1 | uptake in femur (MOLP8 tumor xenografts; 5 min p.i.): 1.42 ± 0.09 %ID g^−1 | uptake in heart (MOLP8 tumor xenografts; 5 min p.i.): 3.13 ± 0.27 %ID g^−1 | uptake in kidney (MOLP8 tumor xenografts; 5 min p.i.): 11.17 ± 0.65 %ID g^−1 | uptake in liver (MOLP8 tumor xenografts; 5 min p.i.): 21.24 ± 1.31 %ID g^−1 | uptake in lungs (MOLP8 tumor xenografts; 5 min p.i.): 6.16 ± 0.16 %ID g^−1 | uptake in muscle (MOLP8 tumor xenografts; 5 min p.i.): 0.92 ± 0.11 %ID g^−1 | uptake in small intestine (MOLP8 tumor xenografts; 5 min p.i.): 1.95 ± 0.08 %ID g^−1 | uptake in spleen (MOLP8 tumor xenografts; 5 min p.i.): 2.28 ± 0.50 %ID g^−1 | uptake in stomach (MOLP8 tumor xenografts; 5 min p.i.): 1.08 ± 0.07 %ID g^−1 | uptake in tumor (MOLP8 tumor xenografts; 5 min p.i.): 2.58 ± 0.18 %ID g^−1 | uptake in blood (MOLP8 tumor xenografts; 30 min p.i.): 2.07 ± 0.30 %ID g^−1 | uptake in femur (MOLP8 tumor xenografts; 30 min p.i.): 0.65 ± 0.08 %ID g^−1 | uptake in heart (MOLP8 tumor xenografts; 30 min p.i.): 0.83 ± 0.18 %ID g^−1 | uptake in kidney (MOLP8 tumor xenografts; 30 min p.i.): 17.09 ± 1.77 %ID g^−1 | uptake in liver (MOLP8 tumor xenografts; 30 min p.i.): 6.39 ± 3.71 %ID g^−1 | uptake in lungs (MOLP8 tumor xenografts; 30 min p.i.): 1.86 ± 0.29 %ID g^−1 | uptake in muscle (MOLP8 tumor xenografts; 30 min p.i.): 0.37 ± 0.05 %ID g^−1 | uptake in small intestine (MOLP8 tumor xenografts; 30 min p.i.): 0.59 ± 0.14 %ID g^−1 | uptake in spleen (MOLP8 tumor xenografts; 30 min p.i.): 0.75 ± 0.14 %ID g^−1 | uptake in stomach (MOLP8 tumor xenografts; 30 min p.i.): 0.51 ± 0.06 %ID g^−1 | uptake in tumor (MOLP8 tumor xenografts; 30 min p.i.): 2.91 ± 0.84 %ID g^−1 | Tumor/blood ratio (MOLP8 tumor xenografts; 60 min p.i.): 7.20 ± 0.89 | Tumor/muscle ratio (MOLP8 tumor xenografts; 60 min p.i.): 27.12 ± 2.73 | uptake in blood (MOLP8 tumor xenografts; 60 min p.i.): 0.56 ± 0.09 %ID g^−1 | uptake in femur (MOLP8 tumor xenografts; 60 min p.i.): 0.28 ± 0.07 %ID g^−1 | uptake in heart (MOLP8 tumor xenografts; 60 min p.i.): 0.29 ± 0.03 %ID g^−1 | uptake in kidney (MOLP8 tumor xenografts; 60 min p.i.): 16 %ID g^−1 and 16.65 ± 2.52 %ID g^−1 | uptake in liver (MOLP8 tumor xenografts; 60 min p.i.): 1.22 ± 0.09 %ID g^−1 | uptake in lungs (MOLP8 tumor xenografts; 60 min p.i.): 0.71 ± 0.10 %ID g^−1 | uptake in muscle (MOLP8 tumor xenografts; 60 min p.i.): 0.14 ± 0.02 %ID g^−1 | uptake in small intestine (MOLP8 tumor xenografts; 60 min p.i.): 0.65 ± 0.09 %ID g^−1 | uptake in spleen (MOLP8 tumor xenografts; 60 min p.i.): 0.39 ± 0.03 %ID g^−1 | uptake in stomach (MOLP8 tumor xenografts; 60 min p.i.): 0.25 ± 0.06 %ID g^−1 | uptake in tumor (MOLP8 tumor xenografts; 60 min p.i.): 3.76 ± 0.25 %ID g^−1 | uptake in blood (MOLP8 tumor xenografts; [4]): 0.56±0.09 %ID g^−1 | uptake in femur (MOLP8 tumor xenografts; [4]): 0.28±0.07 %ID g^−1 | uptake in heart (MOLP8 tumor xenografts; [4]): 0.29±0.03 %ID g^−1 | uptake in kidney (MOLP8 tumor xenografts; [4]): 16.65±2.52 %ID g^−1 | uptake in liver (MOLP8 tumor xenografts; [4]): 1.22±0.09 %ID g^−1 | uptake in lungs (MOLP8 tumor xenografts; [4]): 0.71±0.10 %ID g^−1 | uptake in muscle (MOLP8 tumor xenografts; [4]): 0.14±0.02 %ID g^−1 | uptake in small intestine (MOLP8 tumor xenografts; [4]): 0.65±0.09 %ID g^−1 | uptake in spleen (MOLP8 tumor xenografts; [4]): 0.39±0.03 %ID g^−1 | uptake in stomach (MOLP8 tumor xenografts; [4]): 0.25±0.06 %ID g^−1 | uptake in tumor (MOLP8 tumor xenografts; [4]): 3.76±0.25 %ID g^−1 | uptake in blood (MOLP8 tumor xenografts; 120 min p.i.): 0.05 ± 0.01 %ID g^−1 | uptake in femur (MOLP8 tumor xenografts; 120 min p.i.): 0.07 ± 0.01 %ID g^−1 | uptake in heart (MOLP8 tumor xenografts; 120 min p.i.): 0.05 ± 0.01 %ID g^−1 | uptake in kidney (MOLP8 tumor xenografts; 120 min p.i.): 13.75 ± 0.23 %ID g^−1 | uptake in liver (MOLP8 tumor xenografts; 120 min p.i.): 0.42 ± 0.01 %ID g^−1 | uptake in lungs (MOLP8 tumor xenografts; 120 min p.i.): 0.16 ± 0.03 %ID g^−1 | uptake in muscle (MOLP8 tumor xenografts; 120 min p.i.): 0.07 ± 0.04 %ID g^−1 | uptake in small intestine (MOLP8 tumor xenografts; 120 min p.i.): 0.18 ± 0.04 %ID g^−1 | uptake in spleen (MOLP8 tumor xenografts; 120 min p.i.): 0.17 ± 0.02 %ID g^−1 | uptake in stomach (MOLP8 tumor xenografts; 120 min p.i.): 0.03 ± 0.01 %ID g^−1 | uptake in tumor (MOLP8 tumor xenografts; 120 min p.i.): 1.46 ± 0.02 %ID g^−1 | blood pool activity cleared (MOLP8 tumor xenografts; by 60 min): ~95% | tissue to tissue ratio at 5 min [2, 5]: 0.32 ± 0.04 | tissue to tissue ratio at 0.5 h [2, 5]: 1.43 ± 0.46 | tissue to tissue ratio at 1 h [2, 5]: > 7 | tissue to tissue ratio at 2 h [2, 5]: 19.7 ± 6.57 | tissue to tissue ratio at 5 min [2, 6]: 2.94 ± 0.47 | tissue to tissue ratio at 0.5 h [2, 6]: 7.28 ± 1.89 | tissue to tissue ratio at 1 h [2, 6]: > 25 | tissue to tissue ratio at 2 h [2, 6]: 27.4 ± 18.6 | logD [3]: -1.32 ± 0.08
